Data as given in US20120316169A1, “2-ARYL-PROPIONAMIDE DERIVATIVES USEFUL AS BRADYKININ RECEPTOR ANTAGONISTS AND PHARMACEUTICAL COMPOSITIONS CONTAINING THEM” (DOMPÉ S.P.A., priority 2009, published 2012).

target: T1, BKB1 receptors (Homo sapiens, UniProt P46663); test: Calcium mobilization assay (FLIPR), B1 receptors in IMR-90 cells; assay type: cell-based; details: Human IMR-90 lung fibroblast cells, up-regulated BKB1 receptors, agonist desArg10-kallidin (DAKD) 2 to 8 nM, calcium-dependent fluorescence
T1 construct: Human (IMR-90) lung fibroblast cells expressing native B1 receptors; endogenous in cells; host or cells: IMR-90 human lung fibroblasts, interleukin-treated to up-regulate BKB1 receptors
T1 sequence (P46663 1-353): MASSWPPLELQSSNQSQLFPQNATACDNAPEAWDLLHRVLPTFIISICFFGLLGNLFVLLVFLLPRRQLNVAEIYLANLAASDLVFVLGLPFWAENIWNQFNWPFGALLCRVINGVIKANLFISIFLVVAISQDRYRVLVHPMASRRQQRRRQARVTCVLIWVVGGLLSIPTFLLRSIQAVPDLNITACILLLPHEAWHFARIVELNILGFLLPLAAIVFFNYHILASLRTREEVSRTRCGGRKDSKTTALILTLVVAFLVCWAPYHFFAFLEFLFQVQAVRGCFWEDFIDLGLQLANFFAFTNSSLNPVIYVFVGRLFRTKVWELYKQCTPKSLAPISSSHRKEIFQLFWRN
Experimental: Calcium mobilization assay (FLIPR)—Human (IMR-90) lung fibroblast cells expressing native B1 receptors were harvested by trypsinization and seeded into black wall/clear bottom 96-well plates (Costar 3904; Corning Life Sciences, Acton, Mass.) at approximately 13,000 cells/well. After 1 day incubation, cells were treated with […] (0.35 ng/ml) in 10% FBS/MEM for 2 h to up-regulate BKB1 receptors. Induced cells were loaded with fluorescent calcium indicator by incubation with 2.3 μM Fluo-4/acetoxymethyl ester (Invitrogen) at 37° C. for 1.5 h in the presence of an anion transport inhibitor (2.5 mM probenecid in 1% FBS/MEM). Extracellular dye was removed by washing with assay buffer (2.5 mM probenecid, 0.1% BSA in 20 mM HEPES/HBSS without bicarbonate or phenol red, pH 7.5) and cell plates were kept in the dark until used. Test compounds were assayed at eight concentrations in triplicate. Addition of test compounds to the cell plate and incubation for 5 min at 35° C., followed by the addition of 2 to 8 nM final BK1 agonist desArg^10-kallidin (DAKD, 3×EC50) was carried out in the fluorimetric imaging plate reader (FLIPR; Molecular Devices) while continuously monitoring calcium-dependent fluorescence.

Row | Structure (SMILES) | IC50 [µM]
1 | CC(C(N)=O)c1ccc(Nc2ccc3c(c2)OC(F)(F)O3)cc1 (stereo not shown) [Compound 79, 2-{4-[(2,2-difluoro-1,3-benzodioxol-5-yl)amino]phenyl}propanamide] | 1.35
2 | Cc1ccc(OCC(O)CNC(=O)C(C)c2ccc(Nc3nc(C(F)(F)F)co3)cc2)cc1C (stereo not shown) [Compound 32, N-[2-hydroxy-3-(3,4-dimethylphenoxy)propyl]-2-(4-{[4-(trifluoromethyl)-1,3-oxazol-2-yl]amino}phenyl)propanamide] | 8.32
3 | CC(C)Cc1ccc(C(C)C(=O)Nc2cc[n+](C)cn2)cc1 (stereo not shown) [Compound 39, 1-methyl-4-({2-[4-(2-methylpropyl)phenyl]propanoyl}amino)pyrimidin-1-ium iodide] | 12.6
4 | CC(F)(C(=O)Nc1ccsc1S(N)(=O)=O)c1cccc(Nc2nc(C(F)(F)F)cs2)c1 (stereo not shown) [Compound 4, 2-fluoro-N-(2-sulfamoylthiophen-3-yl)-2-(3-{[4-(trifluoromethyl)-1,3-thiazol-2-yl]amino}phenyl)propanamide] | 4.27
5 | CC(C(=O)NCCNCc1ccccc1)c1ccc(Oc2cccc3ccccc23)cc1 (stereo not shown) [Compound 61, N-[2-(benzylamino)ethyl]-2-[4-(naphthalen-1-yloxy)phenyl]propanamide] | 3.24
6 | CC(F)(C(=O)NCCNc1ccccn1)c1ccc(OS(=O)(=O)C(F)(F)F)cc1 (stereo not shown) [Compound 3, 4-(2-fluoro-1-oxo-1-{[2-(pyridin-2-ylamino)ethyl]amino}propan-2-yl)phenyl trifluoromethanesulfonate] | 13.2
7 | CC(C(=O)NCCN1CCCC1)c1cccc(Oc2cccc(OC(F)(F)F)c2)c1 (stereo not shown) [Compound 19, N-[(2-pyrrolidin-1-yl)ethyl]-2-{3-[3-(trifluoromethoxy)phenoxy]phenyl}propanamide] | 7.76
8 | COc1cc(Nc2cccc(C(C)C(=O)Nc3ccncn3)c2)cc(C(F)(F)F)c1 (stereo not shown) [Compound 55, 2-(3-{[3-methoxy-5-(trifluoromethyl)phenyl]amino}phenyl)-N-(pyrimidin-4-yl)propanamide] | 5.25
9 | CC(C(=O)Nc1ccccc1)c1cccc(C(=O)c2ccccc2)c1 (stereo not shown) [Compound 35, N-phenyl-2-[3-(phenylcarbonyl)phenyl]propanamide] | 10
10 | COc1cc(Nc2cccc(C(C)C(=O)Nn3cccc3)c2)cc(C(F)(F)F)c1 (stereo not shown) [Compound 53, 2-(3-{[3-methoxy-5-(trifluoromethyl)phenyl]amino}phenyl)-N-(1H-pyrrol-1-yl)propanamide] | 14.5
11 | CCNC(=O)C(C)c1cccc(Nc2cc(OC)cc(C(F)(F)F)c2)c1 (stereo not shown) [Compound 56, N-ethyl-2-(3-{[3-methoxy-5-(trifluoromethyl)phenyl]amino}phenyl)propanamide] | 7.76
12 | CC(C)Cc1ccc(C(C)C(=O)NC(N)=O)cc1 (stereo not shown) [Compound 38, N-carbamoyl-2-[4-(2-methylpropyl)phenyl]propanamide] | 20
13 | CC(C(=O)Nc1ccncc1)c1ccc(Oc2cccc(F)c2)cc1 (stereo not shown) [Compound 68, 2-[4-(3-fluroophenoxy)phenyl]-N-(pyridin-4-yl)propanamide] | 6.17
14 | CC(C(=O)Nn1cnnc1)c1ccc(Oc2cccc3ccccc23)cc1 (stereo not shown) [Compound 64, 2-[4-(naphthalen-1-yloxy)phenyl]-N-(4H-1,2,4-triazol-4-yl)propanamide] | 8.91
15 | CC(C(=O)Nc1ccncc1)c1cccc(Oc2ccc3ccccc3c2)c1 (stereo not shown) [Compound 73, 2-[3-(naphthalen-2-yloxy)phenyl]-N-(pyridin-4-yl)propanamide] | 2.82
16 | COc1cccc(CN(C)CCNC(=O)C(C)c2ccc(NS(=O)(=O)C(C)C)cc2)c1 (stereo not shown) [Compound 22] | 8.13
17 | COc1cccc(Nc2ccc(C(C)C(=O)Nc3cc(C)nn3C)cc2)c1OC (stereo not shown) [Compound 25, 2-{4-[(2,3-dimethoxyphenyl)amino]phenyl}-N-(1,3-dimethyl-1H-pyrazol-5-yl)propanamide] | 3.09
18 | CC(=O)NCCNC(=O)C(C)c1ccc(Oc2cccc3ccccc23)cc1 (stereo not shown) [Compound 66, N-[2-(acetylamino)ethyl]-2-[4-(naphthalen-1-yloxy)phenyl]propanamide] | 6.61
19 | CC(C(=O)Nc1ccncn1)c1ccc(Oc2ccc(F)cc2)cc1 (stereo not shown) [Compound 72, 2-[4-(4-fluorophenoxy)phenyl]-N-(pyrimidin-4-yl)propanamide] | 3.39

Row | Structure (SMILES) | IC50 [µM]
20 | Cc1ccnn1CCNC(=O)C(C)(F)c1ccc(OS(=O)(=O)C(F)(F)F)cc1 (stereo not shown) [Compound 2, 4-(2-fluoro-1-{[2-(5-methyl-1H-pyrazol-1-yl)ethyl]amino}-1-oxopropan-2-yl)phenyl trifluoromethanesulfonate] | 6.17
21 | CCCC/C=C/c1cccc(C(C)C(=O)NCCNC(C)C)c1 (stereo not shown) [Compound 27, 2-{3-[hex-1-en-1-yl]phenyl}-N-[2-(propan-2-ylamino)ethyl]propanamide] | 8.51
22 | COc1cccc(Nc2ccc(C(C)C(=O)Nc3cc(C)nn3C)cc2)c1 (stereo not shown) [Compound 10] | 7.94
23 | COc1cc(Nc2cccc(C(C)C(=O)NCC(C)(C)N)c2)cc(C(F)(F)F)c1 (stereo not shown) [Compound 58, N-(2-amino-2-methylpropyl)-2-[3-{[3-methoxy-5-(trifluoromethyl)phenyl]amino}phenyl]propanamide] | 5.89
24 | CC(C(=O)NCCC1CCN(c2ccncc2)CC1)c1ccc(Nc2ccccc2-n2cccc2)cc1 (stereo not shown) [Compound 70, N-{2-[1-(pyridin-4-yl)piperidin-4-yl]ethyl}-2-(4-{[2-(1H-pyrrol-1-yl)phenyl]amino}phenyl)propanamide] | 0.708
25 | Cc1ccc(OCC(O)CNC(=O)C(C)c2ccc(OS(=O)(=O)C(F)(F)F)cc2)cc1C (stereo not shown) [Compound 51, 4-[3-(3,4-dimethylphenoxy)-2-hydroxypropyl]amino-1-oxopropan-2-yl)phenyl trifluoromethanesulfonate] | 11.5
26 | COc1cccc(Nc2ccc(C(C)C(=O)NC3CCN(Cc4ccccc4)CC3)cc2)c1 (stereo not shown) [Compound 9, 2-{4-[(3-methoxyphenyl)amino]phenyl}-N-(1-benzylpiperidin-4-yl)propanamide] | 7.76
27 | COc1cccc(CN(C)CCCNC(=O)C(C)c2ccc(OS(=O)(=O)C(F)(F)F)cc2)c1 (stereo not shown) [Compound 50, 4-(1-{[3-[3-methoxybenzyl(methyl)amino]propyl}amino-1-oxopropan-2-yl)phenyl trifluoromethanesulfonate] | 3.63
28 | CC(C(=O)Nc1ccncc1)c1ccc(Nc2ccc(F)cc2)cc1 (stereo not shown) [Compound 71, 2-{4-[(4-fluorophenyl)amino]phenyl}-N-(pyridin-4-yl)propanamide] | 4.47
29 | COc1cc(Nc2cccc(C(C)C(=O)NCCNCc3ccccc3)c2)cc(C(F)(F)F)c1 (stereo not shown) [Compound 57, 2-{3-[(3-methoxy-5-(trifluoromethyl)phenyl)amino]phenyl}-N-[2-(benzylamino)ethyl]propanamide] | 3.47
30 | CC(C(=O)Nc1nccs1)c1cccc(C(=O)c2ccccc2)c1 (stereo not shown) [Compound 33, 2-[3-(phenylcarbonyl)phenyl]-N-(1,3-thiazol-2-yl)propanamide] | 10.2
31 | CCn1nc(C)cc1NC(=O)C(C)c1ccc(Nc2nc(C(F)(F)F)cs2)cc1 (stereo not shown) [Compound 41, N-(1-ethyl-3-methyl-1H-pyrazol-5-yl)-2-(4-{[4-(trifluoromethyl)-1,3-thiazol-2-yl]amino}phenyl)propanamide] | 10
32 | CC(C(=O)Nc1ccncn1)c1cccc(Nc2ccc(N3CCOCC3)cc2)c1 (stereo not shown) [Compound 15, 2-(3-{[4-(morpholin-4-yl)phenyl]amino}phenyl)N-(pyrimidin-4-yl)propanamide] | 9.12
33 | CCc1cc(NC(=O)C(C)c2ccc(Nc3nc(C(F)(F)F)co3)cc2)[nH]n1 (stereo not shown) [Compound 29, N-(3-ethyl-1H-pyrazol-5-yl)-2-(4-{[4-(trifluoromethyl)-1,3-oxazol-2-yl]amino}phenyl)propanamide] | 7.08
34 | CC(C(=O)NCC(=O)NC(C)(C)C)c1ccc(Nc2nc(C(F)(F)F)co2)cc1 (stereo not shown) [Compound 30, N-[2-(tert-butylamino)-2-oxoethyl]-2-(4-{[4-(trifluoromethyl)-1,3-oxazol-2-yl]amino}phenyl)propanamide] | 7.76
35 | CC(C(=O)Nc1ccc(Cc2ccncc2)cc1)c1ccc(OS(=O)(=O)C(F)(F)F)cc1 (stereo not shown) [Compound 48, 4-{1-oxo-1-[4-(pyridin-4-ylmethyl)propan-2-yl]amino}phenyl trifluoromethanesulfonate] | 12.6
36 | COc1cc(Nc2cccc(C(C)C(=O)NNC(=O)c3ccco3)c2)cc(C(F)(F)F)c1 (stereo not shown) [Compound 54, N′-{2-[3-(3-methoxy-5-(trifluoromethyl)phenylamino)phenyl]propanoyl}furan-2-carbohydrazide] | 8.51
37 | CC(C(=O)NC1CCCCC1)c1cccc(C(=O)c2ccccc2)c1 (stereo not shown) [Compound 34, N-cyclohexyl-2-[3-(phenylcarbonyl)phenyl]propanamide] | 8.51
